Measurements taken from ChEMBL document CHEMBL1201861, “Genomics of Drug Sensitity in Cancer screening data, Wellcome Trust Sanger Institute”.

Tests used:
Assay in all cases: cells
[1] = test system: LP-1; assay type: functional, cell-based, Homo sapiens; details: Homo sapiens, LP-1;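 further: growth inhibition of human LP-1 cells, with the read-out taken from a cell viability assay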
Description: SANGER: Inhibition of human LP-1 cell growth in a cell viability assay.

[2] = test system: FTC-133; assay type: functional, cell-based; details: Homo sapiens
[3] = test system: NCI-H2122; assay type: functional, cell-based; details: Homo sapiens;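 further: growth inhibition of the cells, read out with a cell viability assay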
Description: SANGER: Inhibition of human NCI-H2122 cell growth in a cell viability assay.

[4] = test system: ABC-1; assay type: functional, cell-based; details: Homo sapiens;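 further: growth inhibition of human ABC-1 cells, read out by a cell viability assay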
Description: SANGER: Inhibition of human ABC-1 cell growth in a cell viability assay.

[5] = test system: BPH-1; assay type: functional, cell-based; details: Homo sapiens;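 further: cell viability assay measuring growth inhibition of human BPH-1 cells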
Description: SANGER: Inhibition of human BPH-1 cell growth in a cell viability assay.

[6] = test system: L-540; assay type: functional, cell-based, Homo sapiens; details: Homo sapiens, L-540;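 further: growth inhibition of the human L-540 cell line, read out with a viability assay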
Description: SANGER: Inhibition of human L-540 cell growth in a cell viability assay.

[7] = test system: LN-405; assay type: functional, cell-based; details: Homo sapiens
Description: SANGER: Inhibition of human LN-405 cell growth in a cell viability assay.

[8] = test system: KYSE-150 cell line; assay type: functional, cell-based; details: Homo sapiens;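 further: growth inhibition of human KYSE-150 cells, read out with a cell viability assay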
Description: SANGER: Inhibition of human KYSE-150 cell growth in a cell viability assay.

[9] = test system: G-402; assay type: functional, cell-based; details: Homo sapiens
Description: SANGER: Inhibition of human G-402 cell growth in a cell viability assay.

[10] = test system: UMUC3; assay type: functional, cell-based; details: Homo sapiens;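 further: growth inhibition of human UM-UC-3 cells, read out with a cell viability assay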
Description: SANGER: Inhibition of human UM-UC-3 cell growth in a cell viability assay.

[11] = test system: CAL-85-1; assay type: functional, cell-based; details: Homo sapiens;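 further: growth inhibition of human CAL-85-1 cells, read out with a cell viability assay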
Description: SANGER: Inhibition of human CAL-85-1 cell growth in a cell viability assay.

[12] = test system: CA46; assay type: functional, cell-based, Homo sapiens; details: Homo sapiens, CA46;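 further: growth inhibition of human CA46 cells, read out by a cell viability assay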
Description: SANGER: Inhibition of human CA46 cell growth in a cell viability assay.

[13] = test system: THP-1; assay type: functional, cell-based, Homo sapiens; details: Homo sapiens, THP-1;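 further: growth inhibition of THP-1 cells, read out via a cell viability assay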
Description: SANGER: Inhibition of human THP-1 cell growth in a cell viability assay.

[14] = test system: HT-29; assay type: functional, cell-based; details: Homo sapiens;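 further: growth inhibition of human HT-29 cells, read out by a cell viability assay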
Description: SANGER: Inhibition of human HT-29 cell growth in a cell viability assay.

[15] = test system: SW13; assay type: functional, cell-based; details: Homo sapiens;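 further: IC50 is inhibition of SW13 cell growth, read out with a cell viability assay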
Description: SANGER: Inhibition of human SW13 cell growth in a cell viability assay.

[16] = test system: CAL-54; assay type: functional, cell-based; details: Homo sapiens;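 further: growth inhibition of CAL-54 cells, read out by a viability measurement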
Description: SANGER: Inhibition of human CAL-54 cell growth in a cell viability assay.

[17] = test system: HCC1937; assay type: functional, cell-based; details: Homo sapiens;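 further: growth inhibition measured with a cell viability read-out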
Description: SANGER: Inhibition of human HCC1937 cell growth in a cell viability assay.

[18] = test system: C-33-A; assay type: functional, cell-based; details: Homo sapiens;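 further: cell viability assay measuring growth inhibition of C-33-A cells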
Description: SANGER: Inhibition of human C-33-A cell growth in a cell viability assay.

[19] = test system: BXPC-3; assay type: functional, cell-based; details: Homo sapiens;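 further: growth inhibition of human BxPC-3 cells, read out by a cell viability assay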
Description: SANGER: Inhibition of human BxPC-3 cell growth in a cell viability assay.

[20] = test system: NCI-H1651; assay type: functional, cell-based; details: Homo sapiens;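 further: Read-out is a cell viability assay, with IC50 expressing inhibition of NCI-H1651 cell growth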
Description: SANGER: Inhibition of human NCI-H1651 cell growth in a cell viability assay.

[21] = test system: KYSE-510; assay type: functional, cell-based; details: Homo sapiens;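 further: cell viability readout used to measure how strongly growth of the cell line is suppressed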
Description: SANGER: Inhibition of human KYSE-510 cell growth in a cell viability assay.

[22] = test system: MKN-7; assay type: functional, cell-based; details: Homo sapiens;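 further: growth inhibition of MKN-7 cells, read out with a cell viability assay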
Description: SANGER: Inhibition of human MKN7 cell growth in a cell viability assay.

[23] = test system: NCI-H2030; assay type: functional, cell-based; details: Homo sapiens;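 further: growth inhibition of human NCI-H2030 cells, read out by a cell viability assay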
Description: SANGER: Inhibition of human NCI-H2030 cell growth in a cell viability assay.

[24] = test system: LU-165; assay type: functional, cell-based, Homo sapiens; details: Homo sapiens, LU-165
Description: SANGER: Inhibition of human LU-165 cell growth in a cell viability assay.

[25] = test system: SNU-C1; assay type: functional, cell-based, Homo sapiens; details: Homo sapiens, SNU-C1;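 further: growth inhibition of SNU-C1 human cells, read out by a cell viability assay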
Description: SANGER: Inhibition of human SNU-C1 cell growth in a cell viability assay.

[26] = test system: NCI-H2452; assay type: functional, cell-based; details: Homo sapiens;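 further: growth inhibition of NCI-H2452 cells, read out with a cell viability assay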
Description: SANGER: Inhibition of human NCI-H2452 cell growth in a cell viability assay.

[27] = test system: YKG-1; assay type: functional, cell-based; details: Homo sapiens;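 further: cell growth inhibition, read out with a viability assay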
Description: SANGER: Inhibition of human YKG-1 cell growth in a cell viability assay.

[28] = test system: HSC-2; assay type: functional, cell-based; details: Homo sapiens;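 further: growth inhibition of human HSC-2 cells, read out by a cell viability assay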
Description: SANGER: Inhibition of human HSC-2 cell growth in a cell viability assay.

[29] = test system: NCI-H1793; assay type: functional, cell-based; details: Homo sapiens;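 further: cell growth inhibition, read out by a cell viability assay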
Description: SANGER: Inhibition of human NCI-H1793 cell growth in a cell viability assay.

[30] = test system: KYSE-140; assay type: functional, cell-based; details: Homo sapiens;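 further: cell viability assay measuring growth inhibition in human KYSE-140 cells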
Description: SANGER: Inhibition of human KYSE-140 cell growth in a cell viability assay.

[31] = test system: CAL-33; assay type: functional, cell-based; details: Homo sapiens;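 further: growth inhibition of CAL-33 cells, read out with a cell viability assay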
Description: SANGER: Inhibition of human CAL-33 cell growth in a cell viability assay.

[32] = test system: YT; assay type: functional, cell-based, Homo sapiens; details: Homo sapiens, YT
Description: SANGER: Inhibition of human YT cell growth in a cell viability assay.

[33] = test system: 786-0; assay type: functional, cell-based; details: Homo sapiens
Description: SANGER: Inhibition of human 786-0 cell growth in a cell viability assay.

[34] = test system: MHH-CALL-2; assay type: functional, cell-based, Homo sapiens; details: Homo sapiens, MHH-CALL-2;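 further: growth inhibition of the cell line, read out in a cell viability assay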
Description: SANGER: Inhibition of human MHH-CALL-2 cell growth in a cell viability assay.

[35] = test system: DMS-153; assay type: functional, cell-based, Homo sapiens; details: Homo sapiens, DMS-153
Description: SANGER: Inhibition of human DMS-153 cell growth in a cell viability assay.

[36] = test system: DG-75; assay type: functional, cell-based, Homo sapiens; details: Homo sapiens, DG-75;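 further: growth inhibition of DG-75 cells, read out with a cell viability assay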
Description: SANGER: Inhibition of human DG-75 cell growth in a cell viability assay.

[37] = test system: SW1573; assay type: functional, cell-based; details: Homo sapiens;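 further: growth inhibition of SW1573 cells, read out with a cell viability assay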
Description: SANGER: Inhibition of human SW1573 cell growth in a cell viability assay.

[38] = test system: A673; assay type: functional, cell-based; details: Homo sapiens;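 further: growth inhibition of human A673 cells, read out through a cell viability assay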
Description: SANGER: Inhibition of human A673 cell growth in a cell viability assay.

[39] = test system: SW1783; assay type: functional, cell-based; details: Homo sapiens;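 further: cell growth inhibition measured with a viability assay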
Description: SANGER: Inhibition of human SW1783 cell growth in a cell viability assay.

[40] = test system: SR; assay type: functional, cell-based, Homo sapiens; details: Homo sapiens, SR
Description: SANGER: Inhibition of human SR cell growth in a cell viability assay.

[41] = test system: HCT-116; assay type: functional, cell-based; details: Homo sapiens
Description: SANGER: Inhibition of human HCT-116 cell growth in a cell viability assay.

[42] = test system: ME-180; assay type: functional, cell-based; details: Homo sapiens;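 further: cell viability assay measuring growth inhibition of ME-180 cells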
Description: SANGER: Inhibition of human ME-180 cell growth in a cell viability assay.

[43] = test system: NCI-H661; assay type: functional, cell-based; details: Homo sapiens;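 further: cell viability assay read-out, IC50 being the concentration that inhibits growth of the cells by half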
Description: SANGER: Inhibition of human NCI-H661 cell growth in a cell viability assay.

[44] = test system: VM-CUB-1; assay type: functional, cell-based; details: Homo sapiens;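 further: cell viability assay measuring growth inhibition of the human VM-CUB-1 cell line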
Description: SANGER: Inhibition of human VM-CUB-1 cell growth in a cell viability assay.

[45] = test system: DMS-273; assay type: functional, cell-based; details: Homo sapiens
Description: SANGER: Inhibition of human DMS-273 cell growth in a cell viability assay.

[46] = test system: NCI-H596; assay type: functional, cell-based; details: Homo sapiens;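 further: growth inhibition of NCI-H596 cells, read out with a cell viability assay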
Description: SANGER: Inhibition of human NCI-H596 cell growth in a cell viability assay.

[47] = test system: SK-HEP1; assay type: functional, cell-based, SK-HEP-1; details: Homo sapiens;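 further: cell viability readout used to quantify reduction in proliferation of human SK-HEP-1 cells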
Description: SANGER: Inhibition of human SK-HEP-1 cell growth in a cell viability assay.

[48] = test system: GCT; assay type: functional, cell-based; details: Homo sapiens;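 further: GCT cell line proliferation inhibition, read out with a cell viability assay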
Description: SANGER: Inhibition of human GCT cell growth in a cell viability assay.

[49] = test system: CAL-51; assay type: functional, cell-based; details: Homo sapiens;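 further: human CAL-51 cell line, growth inhibition read out via a cell viability assay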
Description: SANGER: Inhibition of human CAL-51 cell growth in a cell viability assay.

[50] = test system: A2780; assay type: functional, cell-based; details: Homo sapiens;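 further: growth inhibition of A2780 cells, read out with a cell viability assay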
Description: SANGER: Inhibition of human A2780 cell growth in a cell viability assay.

[51] = test system: KMOE-2; assay type: functional, cell-based, Homo sapiens; details: Homo sapiens, KMOE-2;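 further: growth inhibition of human KMOE-2 cells, read out with a cell viability assay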
Description: SANGER: Inhibition of human KMOE-2 cell growth in a cell viability assay.

[52] = test system: HuTu80; assay type: functional, cell-based, Homo sapiens, HUTU-80; details: Homo sapiens, HuTu80;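 further: growth inhibition of HuTu80 human cells, determined with a cell viability readout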
Description: SANGER: Inhibition of human HUTU-80 cell growth in a cell viability assay.

[53] = test system: HCC 2998; assay type: functional, cell-based; details: Homo sapiens;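 further: growth inhibition of human HCC2998 cells, measured with a cell viability read-out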
Description: SANGER: Inhibition of human HCC2998 cell growth in a cell viability assay.

[54] = test system: SK-MEL-24; assay type: functional, cell-based; details: Homo sapiens;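 further: growth inhibition read out by a cell viability assay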
Description: SANGER: Inhibition of human SK-MEL-24 cell growth in a cell viability assay.

[55] = test system: A-375; assay type: functional, cell-based; details: Homo sapiens;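 further: growth inhibition of A375 cells, read out with a cell viability assay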
Description: SANGER: Inhibition of human A375 cell growth in a cell viability assay.

[56] = test system: PA-1; assay type: functional, cell-based; details: Homo sapiens;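 further: IC50 for suppression of PA-1 cell proliferation, determined with a cell viability read-out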
Description: SANGER: Inhibition of human PA-1 cell growth in a cell viability assay.

[57] = test system: LB373-MEL-D; assay type: functional, cell-based, Homo sapiens; details: Homo sapiens, LB373-MEL-D;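 further: growth inhibition of the cell line, read out in a cell viability assay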
Description: SANGER: Inhibition of human LB373-MEL-D cell growth in a cell viability assay.

[58] = test system: SIG-M5; assay type: functional, cell-based, Homo sapiens; details: Homo sapiens, SIG-M5;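 further: cell viability assay read-out, measuring how strongly growth of cultured human SIG-M5 cells is inhibited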
Description: SANGER: Inhibition of human SIG-M5 cell growth in a cell viability assay.

[59] = test system: JEG-3; assay type: functional, cell-based; details: Homo sapiens
Description: SANGER: Inhibition of human JEG-3 cell growth in a cell viability assay.

[60] = test system: EB2; assay type: functional, cell-based, Homo sapiens; details: Homo sapiens, EB2
Description: SANGER: Inhibition of human EB2 cell growth in a cell viability assay.

## CCCCCCCCCCCC1=C(O)C(=O)C=C(O)C1=O [EMBELIN]
[1]
  IC50: > 32 µM
[2]
  IC50: > 32 µM
[3]
  IC50: 2.81 µM
[4]
  IC50: > 32 µM
[5]
  IC50: > 32 µM
[6]
  IC50: 8.42 µM
[7]
  IC50: 18.8 µM
[8]
  IC50: 12.1 µM
[9]
  IC50: 11.3 µM
[10]
  IC50: 10.1 µM
[11]
  IC50: 7.81 µM
[12]
  IC50: 18.7 µM
[13]
  IC50: 29.8 µM
[14]
  IC50: 7.52 µM
[15]
  IC50: 12.6 µM
[16]
  IC50: 20.4 µM
[17]
  IC50: 8.63 µM
[18]
  IC50: > 32 µM
[19]
  IC50: 6.41 µM
[20]
  IC50: 5.98 µM
[21]
  IC50: 5.81 µM
[22]
  IC50: > 32 µM
[23]
  IC50: 12.7 µM
[24]
  IC50: > 32 µM
[25]
  IC50: 10.3 µM
[26]
  IC50: > 32 µM
[27]
  IC50: 8.88 µM
[28]
  IC50: 7.4 µM
[29]
  IC50: > 32 µM
[30]
  IC50: 5.04 µM
[31]
  IC50: 22.9 µM
[32]
  IC50: 12.8 µM
[33]
  IC50: 8.64 µM
[34]
  IC50: > 32 µM
[35]
  IC50: > 32 µM
[36]
  IC50: > 32 µM
[37]
  IC50: > 32 µM
[38]
  IC50: 12.6 µM
[39]
  IC50: 10.1 µM
[40]
  IC50: 28.2 µM
[41]
  IC50: 28.5 µM
[42]
  IC50: 30.6 µM
[43]
  IC50: 19.2 µM
[44]
  IC50: 10.8 µM
[45]
  IC50: 4.06 µM
[46]
  IC50: 15.4 µM
[47]
  IC50: 9.58 µM
[48]
  IC50: > 32 µM
[49]
  IC50: 5.37 µM
[50]
  IC50: 13.2 µM
[51]
  IC50: 24.3 µM
[52]
  IC50: 2.35 µM
[53]
  IC50: 6.8 µM
[54]
  IC50: 4.67 µM
[55]
  IC50: 3.57 µM
[56]
  IC50: 2.32 µM
[57]
  IC50: 24.2 µM
[58]
  IC50: 1.31 µM
[59]
  IC50: 16.8 µM
[60]
  IC50: 6.17 µM

## COc1ccc(-c2cc3nccn3c(Nc3ncccc3C(N)=O)n2)cc1OC
[1]
  IC50: 4.02 µM
[2]
  IC50: > 8 µM
[3]
  IC50: 1.28 µM
[4]
  IC50: > 8 µM
[5]
  IC50: 1.99 µM
[6]
  IC50: > 8 µM
[7]
  IC50: > 8 µM
[8]
  IC50: 6.05 µM
[9]
  IC50: 6.9 µM
[10]
  IC50: 7.41 µM
[11]
  IC50: 3.33 µM
[12]
  IC50: 1.08 µM
[13]
  IC50: > 8 µM
[14]
  IC50: 2.81 µM
[15]
  IC50: > 8 µM
[16]
  IC50: > 8 µM
[17]
  IC50: > 8 µM
[18]
  IC50: 2.53 µM
[19]
  IC50: 2.86 µM
[20]
  IC50: 4.15 µM
[21]
  IC50: 2.87 µM
[22]
  IC50: > 8 µM
[23]
  IC50: 6.25 µM
[24]
  IC50: 7.97 µM
[25]
  IC50: > 8 µM
[26]
  IC50: > 8 µM
[27]
  IC50: 2.65 µM
[28]
  IC50: 4.53 µM
[29]
  IC50: > 8 µM
[30]
  IC50: 3.75 µM
[31]
  IC50: > 8 µM
[32]
  IC50: 2.34 µM
[33]
  IC50: 1.36 µM
[34]
  IC50: > 8 µM
[35]
  IC50: > 8 µM
[36]
  IC50: > 8 µM
[37]
  IC50: > 8 µM
[38]
  IC50: > 8 µM
[39]
  IC50: > 8 µM
[40]
  IC50: 0.548 µM
[41]
  IC50: 3.98 µM
[42]
  IC50: > 8 µM
[43]
  IC50: > 8 µM
[44]
  IC50: > 8 µM
[45]
  IC50: 6.61 µM
[46]
  IC50: > 8 µM
[47]
  IC50: 1.82 µM
[48]
  IC50: 0.799 µM
[49]
  IC50: 3.02 µM
[50]
  IC50: 1.53 µM
[51]
  IC50: 1.98 µM
[52]
  IC50: 1.81 µM
[53]
  IC50: 5.55 µM
[54]
  IC50: > 8 µM
[55]
  IC50: 1.27 µM
[56]
  IC50: 1.01 µM
[57]
  IC50: > 8 µM
[58]
  IC50: 0.848 µM
[59]
  IC50: > 8 µM
[60]
  IC50: 0.837 µM
